Data published in ChEMBL document CHEMBL1201862, “PubChem BioAssay data set” (2004).
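Following 48 hours of exposure in 96-well plates, responses at five concentrations were used to interpolate endpoints linearly. At the GI50, growth is halved.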 Calls of active or inactive are those of the source. No stated cut-off is given here; in the data, active = GI50 up to about 1.1 µM and inactive = higher.

How the values were obtained:
Assay in all cases: growth of human tumour cells (NCI), 48 h
SF-539 = tested on: SF-539
NCI-H522 = tested on: NCI-H522
LOX IMVI = tested on: LOX IMVI
SF-295 = tested on: SF-295
KM12 = tested on: KM12
NCI-H23 = tested on: NCI-H23
MOLT-4 = tested on: MOLT-4
OVCAR-5 = tested on: OVCAR-5
RXF 393 = tested on: RXF 393
UACC-62 = tested on: UACC-62
NCI-H226 = tested on: NCI-H226
HL-60 = tested on: HL-60
ACHN = tested on: ACHN
HCC 2998 = tested on: HCC 2998
HCT-15 = tested on: HCT-15
RPMI-8226 = tested on: RPMI-8226
A498 = tested on: A498

SMILES	GI50 (SF-539)	GI50 (NCI-H522)	GI50 (LOX IMVI)	GI50 (SF-295)	GI50 (KM12)	GI50 (NCI-H23)	GI50 (MOLT-4)	GI50 (OVCAR-5)	GI50 (RXF 393)	GI50 (UACC-62)	GI50 (NCI-H226)	GI50 (HL-60)	GI50 (ACHN)	GI50 (HCC 2998)	GI50 (HCT-15) [µM]	GI50 (RPMI-8226)	GI50 (A498)
N#Cc1ccc(Cc2ccccn2)cc1Cl	> 100 µM (inactive)	> 100 µM (inactive)	> 100 µM (inactive)	> 100 µM (inactive)	> 100 µM (inactive)	> 100 µM (inactive)	> 100 µM (inactive)	> 100 µM (inactive)	> 100 µM (inactive)	> 100 µM (inactive)	> 100 µM (inactive)	> 100 µM (inactive)	> 100 µM (inactive)	–	–	–	–
Cc1cc([N+](=O)[O-])c(C)c2c1[nH]c1ccc(O)cc12	> 100 µM (inactive)	> 10 µM (inactive)	61.5 µM (inactive)	> 100 µM (inactive)	> 100 µM (inactive)	> 100 µM (inactive)	59.2 µM (inactive)	> 100 µM (inactive)	–	–	> 100 µM (inactive)	16.2 µM (inactive)	99.8 µM (inactive)	> 100 µM (inactive)	50	11.1 µM (inactive)	–
CCOC(=O)C12CCCC1(O)N(NC(N)=O)C(C)=C2C(=O)OC (configuration not stated)	> 100 µM (inactive)	> 100 µM (inactive)	> 100 µM (inactive)	> 100 µM (inactive)	> 100 µM (inactive)	> 100 µM (inactive)	> 100 µM (inactive)	> 100 µM (inactive)	–	> 100 µM (inactive)	> 100 µM (inactive)	> 100 µM (inactive)	> 100 µM (inactive)	> 100 µM (inactive)	> 100	> 100 µM (inactive)	> 100 µM (inactive)
CCOC(=O)NC/C=C/COC1CCCCO1 (configuration not stated)	> 100 µM (inactive)	> 100 µM (inactive)	–	–	> 100 µM (inactive)	–	> 100 µM (inactive)	–	> 100 µM (inactive)	> 100 µM (inactive)	> 100 µM (inactive)	> 100 µM (inactive)	> 100 µM (inactive)	> 100 µM (inactive)	> 100	> 100 µM (inactive)	> 100 µM (inactive)
COc1ccc(C(=O)C(c2ccc(OCc3ccccc3)cc2)c2ccc(OCc3ccccc3)cc2)cc1	> 100 µM (inactive)	> 100 µM (inactive)	> 100 µM (inactive)	> 100 µM (inactive)	> 100 µM (inactive)	> 100 µM (inactive)	> 100 µM (inactive)	> 100 µM (inactive)	> 100 µM (inactive)	> 100 µM (inactive)	> 100 µM (inactive)	> 100 µM (inactive)	> 100 µM (inactive)	> 100 µM (inactive)	> 100	> 100 µM (inactive)	–
COC(=O)c1ccc(C=C(C#N)C#N)cc1	19.5 µM (inactive)	13.7 µM (inactive)	21 µM (inactive)	32.4 µM (inactive)	31.6 µM (inactive)	19.4 µM (inactive)	21.7 µM (inactive)	> 100 µM (inactive)	–	20.8 µM (inactive)	24 µM (inactive)	28.4 µM (inactive)	25 µM (inactive)	15.6 µM (inactive)	35	22.5 µM (inactive)	> 100 µM (inactive)
Nc1ccc2nc(Nc3ccc(F)cc3)cnc2c1	> 100 µM (inactive)	44.4 µM (inactive)	> 100 µM (inactive)	> 100 µM (inactive)	> 100 µM (inactive)	–	27.7 µM (inactive)	> 100 µM (inactive)	–	–	> 100 µM (inactive)	54.7 µM (inactive)	> 100 µM (inactive)	> 100 µM (inactive)	> 100	61.7 µM (inactive)	–
O=C1[C@@H]2C3c4ccccc4C([C@@H]2C(=O)N1c1ccccc1)S3(=O)=O	> 100 µM (inactive)	74.3 µM (inactive)	47.2 µM (inactive)	81.7 µM (inactive)	> 100 µM (inactive)	> 100 µM (inactive)	> 100 µM (inactive)	> 100 µM (inactive)	38.1 µM (inactive)	> 100 µM (inactive)	> 100 µM (inactive)	> 100 µM (inactive)	> 100 µM (inactive)	> 100 µM (inactive)	> 100	> 100 µM (inactive)	–
CC1=CCC23C(C1)OC(Br)(C=CC2(C)O)C3(C)C (configuration not stated)	> 100 µM (inactive)	–	> 100 µM (inactive)	> 100 µM (inactive)	> 100 µM (inactive)	> 100 µM (inactive)	–	> 100 µM (inactive)	–	> 100 µM (inactive)	> 100 µM (inactive)	> 100 µM (inactive)	> 100 µM (inactive)	> 100 µM (inactive)	–	–	> 100 µM (inactive)
O=C(N/C(=C\c1ccc(Cl)cc1)c1nc2ccccc2[nH]1)c1ccccc1	16.7 µM (inactive)	12.7 µM (inactive)	16.2 µM (inactive)	–	16.8 µM (inactive)	18.3 µM (inactive)	16.5 µM (inactive)	37.2 µM (inactive)	18.4 µM (inactive)	16 µM (inactive)	22.2 µM (inactive)	–	27.5 µM (inactive)	–	26.4	16.7 µM (inactive)	21.8 µM (inactive)
N#Cc1c(-c2ccccc2)c(-c2ccccc2)cc2c(=O)c3ccc(Cl)cc3[nH]c12	> 100 µM (inactive)	–	–	> 100 µM (inactive)	–	> 100 µM (inactive)	> 100 µM (inactive)	> 100 µM (inactive)	> 100 µM (inactive)	> 100 µM (inactive)	> 100 µM (inactive)	> 100 µM (inactive)	> 100 µM (inactive)	> 100 µM (inactive)	> 100	> 100 µM (inactive)	–
O=C1[C@@H]2C(c3ccccc3Br)=NO[C@@H]2C(=O)N1c1ccc(Cc2ccc(N3C(=O)[C@H]4C(c5ccccc5Br)=NO[C@H]4C3=O)cc2)cc1	> 100 µM (inactive)	–	> 100 µM (inactive)	> 100 µM (inactive)	> 100 µM (inactive)	> 100 µM (inactive)	> 100 µM (inactive)	> 100 µM (inactive)	50.2 µM (inactive)	> 100 µM (inactive)	96.4 µM (inactive)	> 100 µM (inactive)	> 100 µM (inactive)	> 100 µM (inactive)	> 100	> 100 µM (inactive)	> 100 µM (inactive)
Cc1cc(O)nc(CNC(=O)c2ccc3ccccc3c2)n1	> 100 µM (inactive)	> 100 µM (inactive)	> 100 µM (inactive)	> 100 µM (inactive)	> 100 µM (inactive)	> 100 µM (inactive)	> 100 µM (inactive)	> 100 µM (inactive)	> 100 µM (inactive)	> 100 µM (inactive)	> 100 µM (inactive)	> 100 µM (inactive)	> 100 µM (inactive)	> 100 µM (inactive)	> 100	–	> 100 µM (inactive)
CCn1c(C)nc([N+](=O)[O-])c1Sc1ncc[nH]1	52.6 µM (inactive)	15.6 µM (inactive)	14.7 µM (inactive)	> 100 µM (inactive)	> 100 µM (inactive)	29.9 µM (inactive)	16.7 µM (inactive)	> 100 µM (inactive)	–	28.5 µM (inactive)	> 100 µM (inactive)	–	48.1 µM (inactive)	> 100 µM (inactive)	–	21.1 µM (inactive)	> 100 µM (inactive)
COC(=O)c1cc2c(=O)n(C)c3ccccc3n2c1C(=O)OC	26.1 µM (inactive)	20 µM (inactive)	45.2 µM (inactive)	34.3 µM (inactive)	63.1 µM (inactive)	40.7 µM (inactive)	> 100 µM (inactive)	> 100 µM (inactive)	36.2 µM (inactive)	> 100 µM (inactive)	30.3 µM (inactive)	–	83.2 µM (inactive)	33.5 µM (inactive)	80.2	71.9 µM (inactive)	27.2 µM (inactive)
COc1ccc2c(c1)O[C@@H]1c3ccc(OC)cc3OC[C@H]21	38.1 µM (inactive)	15.3 µM (inactive)	17.9 µM (inactive)	26.9 µM (inactive)	28.4 µM (inactive)	23.2 µM (inactive)	16.6 µM (inactive)	45.3 µM (inactive)	22.4 µM (inactive)	37.8 µM (inactive)	21.5 µM (inactive)	19.3 µM (inactive)	52.4 µM (inactive)	35.2 µM (inactive)	25.8	26.9 µM (inactive)	–
COC(=O)C1C=CCON2CCc3c(n(S(=O)(=O)c4ccccc4)c4ccccc34)C12 (configuration not stated)	> 12.8 µM (inactive)	26.9 µM (inactive)	33.3 µM (inactive)	59.4 µM (inactive)	35.2 µM (inactive)	> 90.4 µM (inactive)	26.9 µM (inactive)	> 100 µM (inactive)	> 67.5 µM (inactive)	> 49.4 µM (inactive)	> 46.2 µM (inactive)	27 µM (inactive)	65.3 µM (inactive)	51.5 µM (inactive)	50.8	14.5 µM (inactive)	> 100 µM (inactive)
O=C1CC[C@H](NC(=O)Cc2ccccc2)C(=O)N1 [ANTINEOPLASTON A10]	> 1250 µM (inactive)	> 1250 µM (inactive)	> 1250 µM (inactive)	> 1250 µM (inactive)	> 1250 µM (inactive)	> 1250 µM (inactive)	> 1250 µM (inactive)	> 1250 µM (inactive)	> 1250 µM (inactive)	> 1250 µM (inactive)	> 1250 µM (inactive)	> 1250 µM (inactive)	> 1250 µM (inactive)	> 1250 µM (inactive)	> 1250	> 1250 µM (inactive)	–
